From patent US20220275403A1, “Methods And Compositions For Enhancing AAV-Mediated Homologous Recombination Using Ribonucleotide Reductase Inhibitors” (The Board of Trustees of the Leland Stanford Junior …, priority 2019, published 2022)
“Also recorded” adds a separate entry of the source.

Experiments:
[1] = system: genomic albumin (Alb) locus, mouse liver; assay: In vivo gene targeting with rAAV8 Alb-P2A-hF9 vector, serum hF9 by ELISA; conditions: for serum hF9 protein levels: vs vehicle; for serum hF9 levels: 2 months after AAV injection; for hF9 expression (plasma/serum hF9 levels): mice, drug ip three sequential days, rAAV8 Alb/F9 on first day, vs controls
Procedure: FIG. 5 Depicts results from in vivo delivery of AAV-based HR in mice. A schematic depicts the injection schedule. rAAV was used to deliver a donor sequence encoding human coagulation factor IX (hF9) into the genomic Albumin (Alb) locus. Plasma hF9 expression in the mouse liver was measured as an assay to detect integration and expression of the integrated donor sequence. […] Experimental plan and time schedule: each drug was given three sequential days by ip injection and AAV was injected at first day with 1e11 vector genome (vg)/g body weight. Serum samples were collected at each time point and hF9 levels were measured by ELISA. Body weight of each mouse were measured to monitor the toxic effect of each drug.
The efficacy of RNR inhibitors in vivo was tested using an AAV8 vector that incorporates a Alb/F9 targeting sequence. The “Alb/F9” targeting vector was an AAV that included a donor DNA having a nucleotide sequence of interest flanked by homology arms that facilitated integration of the sequence of interest into the genomic albumin (Alb) locus. The nucleotide sequence of interest in this case was a 2A peptide sequence 5′ of a sequence encoding human coagulation factor IX (hF9). Thus, once integrated into the genomic locus, the 2A peptide sequence was present between the endogenous albumin coding sequence and the introduced/integrated hF9 coding sequence such that expression of hF9 mRNA was under the control of the albumin promoter but translation of the transcript led to two separate proteins (albumin and hF9). […] Thus, the lack of efficacy observed based on hF9 liver expression (see FIG. 5) is likely due to low/substantially no HU in the liver (FIG. 6). Given the in vitro HU results and the in vitro and in vivo fludarabine results—in addition to the gemcitabine results of FIG. 7, it is likely and expected that AAV-based HR is enhanced in vivo by HU in organs/tissues other than the liver (e.g., kidney, spleen, heart, lung, testes, brain, etc.).
B6 mice were received tail vain injections of rAAV8 packaging each vector at the designated dose and were bled at indicated time points. Body weight of mice were measured using Scout pro portable scale (Ohaus) at indicated time points. Serum samples were obtained by centrifuge at 10,000 rpm for 10 minutes and used for ELISA assay of hF9. Hydroxyurea or fludarabine was resuspended in PBS and were injected intraperitoneally with indicated dose/regimen. For BrdU labeling of proliferating mice hepatocytes, BrdU was resuspended in PBS and were intraperitoneally injected for indicated time periods at 200 mg/kg per day for 3 days or 7 days. Diethylnitrosamine solution was prepared using saline and was also intraperitoneally injected for 3 days at 10 or 30 mg/kg. At the end of experiments, mice were anesthetized with isoflurane and perfused transcardially with PBS and then liver tissues were quickly harvested and cut into several pieces. The tissues for mRNA extractions were immediately submerged in RNAlater solution (Sigma) and stored at 4° C. until use. For gDNA or protein extraction, tissues were snap-frozen in liquid nitrogen and stored at −80° C. until use.
(§1) Mice serum samples were used to quantify hF9 protein expression levels. ELISA for hF9 was performed as previously described with the following antibodies: mouse anti-hF9 IgG primary antibody at 1:1,000 (Sigma Cat#F2645), and polyclonal goat anti-hF9 peroxidase-conjugated IgG secondary antibody at 1:4,000 (Enzyme Research Cat#GAFIX-APHRP).

[2] = Body weight of treated mice; conditions: for body weight: mice, drug ip three sequential days plus rAAV8 Alb/F9, relative to controls
mouse liver = assay: qPCR of liver DNA and mRNA after Alb-P2A-hF9 vector injection
P Ser139 γH2AX = P Ser139 γH2AX DNA damage response in mouse liver (IHC, Western blot)
Huh7 cells = assay: AAV-HR efficiency, AAV-DJ GAPDH/GFP targeting vector, GFP positive cells by FACS; assay type: cell-based, human; conditions: for HR efficiency (GFP positive population by FACS analysis) / AAV-HR efficiency (GFP positive fraction): Huh7; for HR efficiency (GFP positive population by FACS analysis): AAV-DJ GAPDH targeting vector; for AAV-HR efficiency (GFP positive fraction): FIG. 7, drug pretreatment 16 hours, washed out, FACS 14 days after infection
hepatocytes of mice = assay: RNAscope in situ hybridization of hF9 mRNA in liver sections; assay type: in vivo; conditions: vs PBS treated mouse
murine ApoE locus = assay: In vivo gene targeting with rAAV8-ApoE-P2A-hF9 vector, serum hF9; parameters: species or system mouse; conditions: vs PBS
Procedure: Serum was collected at various times across a nearly 60-day time course and hF9 protein levels were determined. Error bars represent s.e.; n=4
Also examined was whether fludarabine-mediated enhancement of gene targeting was Albumin specific—this was done by designing a vector targeting an alternative genomic locus, ApoE. ApoE is highly and specifically expressed in hepatocytes, similar to Albumin. When 1.0×10^11 vg/mouse of this vector (ApoE-P2A-hF9) was injected with fludarabine treatment, a significant increase in hF9 expression compared to PBS-injected mice was observed (FIG. 12). The fold-increase (3.6-fold at day 54) was similar to findings targeting the Albumin locus.
as §1

hepatocytes = assay: BrdU incorporation in mouse liver (hepatocyte proliferation); assay type: in vivo
[3] = system: Albumin gene locus, mouse hepatocytes; assay: CRISPR/Cas9-mediated gene editing in vivo, SaCas9-sgRNA8 plus rAAV8-Alb-P2A-GFP, GFP staining of liver; conditions: vs PBS, Alb-P2A-GFP 6.0×10^12 or 3.0×10^13 vg/kg, 2 weeks after AAV injection

CCN(CC)N=O [DEN, diethylnitrosamine]
serum hF9 protein levels ([1]; DEN 10 mg/kg, not statistically significant): ~1.5 fold | serum hF9 protein levels ([1]; DEN 30 mg/kg, three weeks post rAAV injection): about 3.6 fold | body weight gains ([2]; DEN 10 or 30 mg/kg i.p. once per day for three days, vs vehicle, dose-dependent): decreased body weight gains | endogenous albumin mRNA expression (mouse liver; DEN 10 or 30 mg/kg, liver): nearly unchanged | total hF9 mRNA expression (mouse liver; DEN high dose (30 mg/kg), liver, vs vehicle): 3.9 fold | total hF9 mRNA expression (mouse liver; DEN low dose (10 mg/kg), liver, vs vehicle): 2 fold | on-target HR derived fusion Alb-P2A-hF9 mRNA (mouse liver; DEN, both dose groups, liver, vs vehicle): about 2 fold | γH2AX staining of liver sections (IHC) (P Ser139 γH2AX; DEN-treated mice, positive control): intense nuclear staining of γH2AX

Nc1nc(F)nc2c1ncn2[C@@H]1O[C@H](CO)[C@@H](O)[C@@H]1O [Fludarabine, (2R,3S,4S,5R)-2-(6-amino-2-fluoropurin-9-yl)-5-(hydroxymethyl)oxolane-3,4-diol]
AAV-HR efficiency in cultured cells (Huh7 cells; FIG. 4, Hun7 cells): significantly enhanced AAV-HR efficiency | increase in HR efficiency (Huh7 cells; FIG. 4, vs no RNR inhibitor): 3.5 fold | HR efficiency (GFP positive population by FACS analysis) (Huh7 cells): reproducibly increased HR efficiency | serum hF9 levels ([1]; Flu 125 mg/kg i.p. 3 times per day for five days, vs PBS): 6.4 fold | hF9 expression / gene targeting efficiency with delayed dose ([1]; fludarabine 125 mg/kg i.p. three times per day on days 28-30 after rAAV, serum day 54): little to no effect; also recorded: failed to increase the efficiency of gene targeting | hF9 expression (plasma/serum hF9 levels) [1]: increased hF9 expression | hF9 expression (plasma/serum hF9 levels) ([1]; listed as fludarabine): significantly and consistently increased serum hF9 levels | serum hF9 levels ([1]; single administration (1 day) of fludarabine): about 2 fold | frequency of hF9 mRNA positive cells (hepatocytes of mice): increased the number of hF9 positive hepatocytes | frequency of hF9 mRNA positive cells (hepatocytes of mice; listed as fludarabine): clearly more frequent | fold-increase in hF9 expression (murine ApoE locus; ApoE-P2A-hF9 1.0×10^11 vg/mouse, day 54): 3.6 fold | efficiency of gene targeting at the ApoE locus (serum hF9) (murine ApoE locus; nearly 60-day time course): increased the efficiency of gene targeting at the ApoE locus | BrdU incorporation in liver (hepatocytes; BrdU for three days in washout phase after fludarabine, vs acute phase): significantly greater | BrdU labeled nuclei in liver sections (hepatocytes; BrdU given during fludarabine 125 mg/kg three times per day for three days (acute phase)): nearly absent | number of GFP positive hepatocytes [3]: increased the efficiency of CRISPR/Cas9-mediated gene editing | number of GFP positive hepatocytes ([3]; listed as fludarabine): increase of the number of GFP positive hepatocytes | body weight [2]: without any body weight change | body weight ([2]; listed as fludarabine): without any body weight loss | endogenous albumin expression (mouse liver; liver mRNA, fludarabine treatment): not changed | on-target integrated Alb-P2A-hF9 fusion mRNA expression (mouse liver; liver, vs PBS, normalized to Actb): 5.1 fold | total hF9 mRNA (mouse liver; liver, vs controls, vector-internal primer set): 4.4 fold | γH2AX in liver tissue lysates (Western blotting) (P Ser139 γH2AX; acute phase of fludarabine treatment): strong detection of γH2AX | γH2AX foci in liver (IHC) (P Ser139 γH2AX; three-day washout after fludarabine, vs immediately proximal to treatment): significantly reduced | γH2AX foci in liver (IHC) (P Ser139 γH2AX; time proximate to fludarabine treatment): widespread nuclear localized γH2AX foci

Nc1ccn([C@@H]2O[C@H](CO)[C@@H](O)C2(F)F)c(=O)n1 [Gemcitabine]
AAV-HR efficiency (GFP positive fraction) (Huh7 cells): enhanced AAV-HR efficiency | HR efficiency (GFP positive population by FACS analysis) (Huh7 cells): reproducibly increased HR efficiency

NC(=O)NO [Hydroxyurea, hydroxyurea]
hF9 expression (plasma/serum hF9 levels) [1]: did not exhibit enhancement of hF9 expression

COc1cc([C@@H]2c3cc4c(cc3[C@@H](O[C@@H]3O[C@@H]5CO[C@@H](c6cccs6)O[C@H]5[C@H](O)[C@H]3O)[C@H]3COC(=O)[C@H]23)OCO4)cc(OC)c1O [Teniposide, teniposide]
AAV-HR efficiency (GFP positive fraction) (Huh7 cells): no effect | HR efficiency (GFP positive population by FACS analysis) (Huh7 cells): no effect
